The source made the active and inactive calls. The rule behind the calls is not given here.
Key:
[1] = target: T1, Protein cereblon/Bromodomain-containing protein 9 (Homo sapiens, UniProt Q9H8M2+Q96SW2); assay: PROTAC activity at CRBN/BRD9 in human MV4-11 cells assessed as induction of BRD9 degradation at 10 nM by Western blot analysis relative to control; assay type: cell-based
Target sequence in this assay (Q96SW2 whole entry, looked up): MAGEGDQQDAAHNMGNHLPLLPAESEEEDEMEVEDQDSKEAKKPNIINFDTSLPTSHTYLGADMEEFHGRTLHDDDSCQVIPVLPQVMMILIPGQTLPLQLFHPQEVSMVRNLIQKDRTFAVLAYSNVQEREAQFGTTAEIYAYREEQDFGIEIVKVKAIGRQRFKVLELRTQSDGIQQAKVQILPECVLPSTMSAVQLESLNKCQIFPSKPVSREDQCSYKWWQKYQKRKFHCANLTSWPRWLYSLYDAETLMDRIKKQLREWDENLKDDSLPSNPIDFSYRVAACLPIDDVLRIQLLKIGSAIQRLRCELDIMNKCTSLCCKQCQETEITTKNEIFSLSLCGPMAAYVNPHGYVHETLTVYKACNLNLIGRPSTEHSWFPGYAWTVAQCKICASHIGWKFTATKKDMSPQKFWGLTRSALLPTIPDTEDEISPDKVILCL
Target sequence in this assay (Q9H8M2 whole entry, looked up): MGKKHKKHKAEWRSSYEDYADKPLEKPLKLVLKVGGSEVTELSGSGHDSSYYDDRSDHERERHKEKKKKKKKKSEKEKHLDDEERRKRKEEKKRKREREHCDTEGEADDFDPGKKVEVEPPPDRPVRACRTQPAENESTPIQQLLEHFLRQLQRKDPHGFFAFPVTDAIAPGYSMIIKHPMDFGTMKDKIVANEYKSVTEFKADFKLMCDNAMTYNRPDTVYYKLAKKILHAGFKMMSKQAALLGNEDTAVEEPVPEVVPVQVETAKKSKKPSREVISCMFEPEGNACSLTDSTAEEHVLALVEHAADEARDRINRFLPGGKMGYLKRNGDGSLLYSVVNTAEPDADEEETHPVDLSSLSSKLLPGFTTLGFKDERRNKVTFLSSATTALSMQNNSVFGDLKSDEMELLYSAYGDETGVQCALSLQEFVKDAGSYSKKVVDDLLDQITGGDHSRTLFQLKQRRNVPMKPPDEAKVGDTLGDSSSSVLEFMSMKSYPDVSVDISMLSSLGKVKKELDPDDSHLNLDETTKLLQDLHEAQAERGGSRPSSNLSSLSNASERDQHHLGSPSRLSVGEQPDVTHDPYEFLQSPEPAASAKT

[2] = target: T1, Protein cereblon/Bromodomain-containing protein 9; assay: PROTAC activity at CRBN/BRD9 in human MV4-11 cells assessed as induction of BRD9 degradation at 100 nM by Western blot analysis relative to control; assay type: cell-based
Target sequence in this assay (Q96SW2 whole entry, looked up): as the sequence (Q96SW2 whole entry, looked up) above
Target sequence in this assay (Q9H8M2 whole entry, looked up): as the sequence (Q9H8M2 whole entry, looked up) above

[3] = tested on: MV4-11; assay: Antiproliferative activity against human MV4-11 cells assessed as inhibition of cell growth incubated for 7 days by MTS reagent based assay; assay type: functional; conditions: MV4-11, 168 h
[4] = tested on: MV4-11; assay: Antiproliferative activity against CRBN knockout human MV4-11 cells assessed as inhibition of cell growth incubated for 7 days by MTS reagent based assay; assay type: functional; conditions: MV4-11, 168 h
[5] = target: T1, Protein cereblon/Bromodomain-containing protein 9; assay: PROTAC activity at CRBN/BRD9 in human MV4-11 cells assessed as induction of BRD9 degradation at 1 nM by Western blot analysis relative to control; assay type: cell-based
Target sequence in this assay (Q96SW2 whole entry, looked up): as the sequence (Q96SW2 whole entry, looked up) above
Target sequence in this assay (Q9H8M2 whole entry, looked up): as the sequence (Q9H8M2 whole entry, looked up) above

[6] = target: T1, Protein cereblon/Bromodomain-containing protein 9; assay: PROTAC activity at CRBN/BRD9 (unknown origin); assay type: protein assay
Target sequence in this assay (Q9H8M2 whole entry): as the sequence (Q9H8M2 whole entry, looked up) above
Target sequence in this assay (Q96SW2 whole entry): as the sequence (Q96SW2 whole entry, looked up) above

[7] = tested on: MOLM-13; assay: Antiproliferative activity against human MOLM-13 cells assessed as inhibition of cell growth incubated for 7 days by MTS reagent based assay; assay type: functional; conditions: MOLM-13, 168 h
[8] = tested on: SU-DHL-2; assay: Antiproliferative activity against human SU-DHL-2 cells assessed as inhibition of cell growth incubated for 7 days by MTS reagent based assay; assay type: functional; conditions: SU-DHL-2, 168 h
[9] = tested on: SU-DHL-6; assay: Antiproliferative activity against human SU-DHL-6 cells assessed as inhibition of cell growth incubated for 7 days by MTS reagent based assay; assay type: functional; conditions: SU-DHL-6, 168 h
[10] = tested on: Kasumi 1; assay: Antiproliferative activity against human Kasumi 1 cells assessed as inhibition of cell growth incubated for 7 days by MTS reagent based assay; assay type: functional; conditions: Kasumi 1, 168 h
[11] = tested on: OCI-Ly10; assay: Antiproliferative activity against human OCI-Ly10 cells assessed as inhibition of cell growth incubated for 7 days by MTS reagent based assay; assay type: functional; conditions: OCI-Ly10, 168 h
[12] = tested on: U-937; assay: Antiproliferative activity against human U-937 cells assessed as inhibition of cell growth incubated for 7 days by MTS reagent based assay; assay type: functional; conditions: time 7.0 day

Row | SMILES | Activity [1] [%] | Activity [2] [%] | IC50 [3] [nM] | IC50 [4] [nM] | Activity [5] [%] | DC50 [6] [nM] | IC50 [7] [nM] | IC50 [8] [nM] | IC50 [9] [nM] | IC50 [10] [nM] | IC50 [11] [nM] | Activity [12]
1 | COc1cc(-c2cn(C)c(=O)c3ccccc23)cc(OC)c1CN1CCN(c2ccc(C(=O)NC3CCC(=O)NC3=O)cn2)CC1 (centres undefined) | 39.3 | 50 | 2490 | > 5000 | 33.3 | – | – | – | – | – | – | –
2 | COc1cc(-c2cn(C)c(=O)c3ccccc23)cc(OC)c1CN1CCN(c2ccc(C(=O)NC3CCC(=O)NC3=O)nc2)CC1 (centres undefined) | 21.3 | 65 | 4510 | > 5000 | 18.3 | – | – | – | – | – | – | –
3 | COc1cc(-c2cn(C)c(=O)c(C)c2C)cc(OC)c1CN1CC[C@H](N2CCN(c3ccc(N[C@H]4CCC(=O)NC4=O)cc3F)CC2)C(F)(F)C1 (racemic) [SENDEGOBRESIB] | 74.9 | 93.9 | 35.3 | > 5000 | 6.9 | 3 | 59.9 | 323 | 3250 | 14.6 | 1240 | Active; Weak Inhibitory Effect Observed
4 | COc1cc(-c2cn(C)c(=O)c3ccccc23)cc(OC)c1CN1CCN(c2ccc(C3CCC(=O)NC3=O)cc2)CC1 (centres undefined) | 87.3 | 83.7 | 128 | > 5000 | 65 | – | – | – | – | – | – | –
5 | COc1cc(-c2cn(C)c(=O)c3ccccc23)cc(OC)c1CN1CCC(c2ccc3c4c(cccc24)C(=O)N3C2CCC(=O)NC2=O)CC1 (centres undefined) | 80.5 | 50.5 | 2.44 | > 5000 | 79.5 | – | – | – | – | – | – | –
6 | COc1cc(-c2cn(C)c(=O)c3ccccc23)cc(OC)c1CN1CCN(c2ccc(NC3CCC(=O)NC3=O)cn2)CC1 (centres undefined) | 46.7 | 59.3 | 1670 | > 5000 | 41.7 | – | – | – | – | – | – | –
7 | COc1cc(-c2cn(C)c(=O)c3ccccc23)cc(OC)c1CN1CCN(c2ccc(OC3CCC(=O)NC3=O)cc2)CC1 (centres undefined) | 60.5 | 80.5 | 3610 | > 5000 | 32 | – | – | – | – | – | – | –
8 | COc1cc(-c2cn(C)c(=O)c3ccccc23)cc(OC)c1CN1CCC(CN2CCN(c3ccc(OC4CCC(=O)NC4=O)cc3)CC2)CC1 (centres undefined) | 89 | 98 | 46.9 | > 5000 | 13 | – | – | – | – | – | – | –
9 | COc1cc(-c2cn(C)c(=O)c3ccccc23)cc(OC)c1CN1CCN(c2ccc(NC3CCC(=O)NC3=O)cc2F)CC1 (centres undefined) | 74.7 | 86 | 17.7 | > 5000 | 34 | – | – | – | – | – | – | –
10 | COc1cc(-c2cn(C)c(=O)c3ccccc23)cc(OC)c1CN1CCN(c2ccc(N3CCC(=O)NC3=O)cc2)CC1 | 8 | 25 | 691 | > 5000 | 12 | – | – | – | – | – | – | –
11 | COc1cc(-c2cn(C)c(=O)c3ccccc23)cc(OC)c1CN1CCC(CN2CCN(c3ccc(NC4CCC(=O)NC4=O)cn3)CC2)CC1 (centres undefined) | 85.5 | 86.5 | 11.9 | > 5000 | 56 | – | – | – | – | – | – | –
12 | COc1cc(-c2cn(C)c(=O)c3ccccc23)cc(OC)c1CN1CCN(c2ccc(NC3CCC(=O)NC3=O)cc2)CC1 (centres undefined) | 66 | 80.5 | 424 | > 5000 | 45.5 | – | – | – | – | – | – | –
13 | COc1cc(-c2cn(C)c(=O)c3ccccc23)cc(OC)c1CN1CCC(CN2CCN(c3ccc(C(=O)NC4CCC(=O)NC4=O)nc3)CC2)CC1 (centres undefined) | 95.5 | 92 | 5.31 | > 5000 | 29.5 | – | – | – | – | – | – | –
14 | COc1cc(-c2cn(C)c(=O)c3ccccc23)cc(OC)c1CN1CCC(CN2CCN(c3ccc(NC4CCC(=O)NC4=O)cc3)CC2)CC1 (centres undefined) | 96.5 | 97.5 | 5.61 | > 5000 | 69.5 | – | – | – | – | – | – | –
15 | COc1cc(-c2cn(C)c(=O)c3ccccc23)cc(OC)c1CN1CCN(c2ccc(C(=O)NC3CCC(=O)NC3=O)cc2)CC1 (centres undefined) | 32.3 | 35.7 | 3150 | > 5000 | 26.7 | – | – | – | – | – | – | –
16 | CCn1cc(-c2cccc(C(F)(F)F)c2)c2sc(C(=N)NC3CCS(=O)(=O)CC3)cc2c1=O | – | – | 385 | – | – | – | 1220 | 1590 | 1210 | 453 | 2710 | Active; Weak Inhibitory Effect Observed
